Source: US9169254B2, “Spiroimidazolone derivative” (Chugai Seiyaku Kabushiki Kaisha, priority 2009, dated 2015)

The compounds below were run against T1, human PTH1 receptor (Homo sapiens, UniProt Q03431) (assay: In vitro cAMP signal activity in HKRK-B7 cells (LLC-PK1 cells overexpressing the human PTH1 receptor)). Settings: HKRK-B7 cells; compound at 1×10^−3 M; […]; 0.1 µM.
T1 sequence (Q03431 27-593): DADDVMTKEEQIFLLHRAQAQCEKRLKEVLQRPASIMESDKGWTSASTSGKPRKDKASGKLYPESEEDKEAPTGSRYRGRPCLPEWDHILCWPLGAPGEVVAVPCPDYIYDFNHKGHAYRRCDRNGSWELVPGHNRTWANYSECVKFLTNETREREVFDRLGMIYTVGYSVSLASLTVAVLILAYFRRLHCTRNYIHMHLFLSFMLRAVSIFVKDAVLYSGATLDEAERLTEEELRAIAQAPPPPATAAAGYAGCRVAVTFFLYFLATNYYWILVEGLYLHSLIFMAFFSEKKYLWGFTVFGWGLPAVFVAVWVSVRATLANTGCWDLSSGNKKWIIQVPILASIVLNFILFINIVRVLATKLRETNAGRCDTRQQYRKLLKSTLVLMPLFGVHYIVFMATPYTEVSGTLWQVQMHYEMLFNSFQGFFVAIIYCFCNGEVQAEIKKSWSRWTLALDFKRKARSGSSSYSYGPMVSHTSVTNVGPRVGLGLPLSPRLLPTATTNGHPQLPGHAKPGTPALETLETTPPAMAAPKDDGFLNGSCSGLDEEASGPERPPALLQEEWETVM
Assay type: cell-based

Compound | cAMP production activity (%)
O=C(Nc1ccccc1)c1ccccc1S(=O)(=O)N1CCC2(CC1)N=C(C1CCCCC1)NC2=O [Compound 957, 2-(2-Cyclohexyl-4-oxo-1,3,8-triaza-spiro[4.5]dec-1-ene-8-sulfonyl)-N-phenyl-benzamide] | 17

Same assay, conditions: HKRK-B7 cells; compound at 1×10^−3 M; cAMP produced as percentage of that produced by hPTH(1-34) at 100 nM

Compound | cAMP production activity (%)
O=C(NCc1ccccc1)c1ccccc1S(=O)(=O)N1CCC2(CC1)N=C(C1CCCCC1)NC2=O [Compound 347, N-Benzyl-2-(2-cyclohexyl-4-oxo-1,3,8-triaza-spiro[4.5]dec-1-ene-8-sulfonyl)-benzamide] | 23
O=C1NC(C2CCCCC2)=NC12CCN(S(=O)(=O)/C=C/c1cccc3c1ccn3Cc1nccs1)CC2 [Compound 483, 2-cyclohexyl-8-[(E)-2-(1-thiazol-2-ylmethyl-1H-indol-4-yl)-ethenesulfonyl]-1,3,8-triaza-spiro[4.5]dec-1-en-4-one] | 41
Cc1cc(S(=O)(=O)NCC(F)(F)F)ccc1/C=C/S(=O)(=O)N1CCC2(CC1)N=C(c1cccc(C(F)(F)F)c1)NC2=O [Compound 217, 3-methyl-4-{(E)-2-[4-oxo-2-(3-trifluoromethyl-phenyl)-1,3,8-triaza-spiro[4.5]dec-1-ene-8-sulfonyl]-vinyl}-N-(2,2,2-trifluoro-ethyl)-benzenesulfonamide] | 41
CCS(=O)(=O)CCCCCCC1=NC2(CCN(S(=O)(=O)CCc3c(C)cc(N(C)C(N)=O)cc3C)CC2)C(=O)N1 [Compound 1320, 1-(4-{2-[2-(6-ethanesulfonyl-hexyl)-4-oxo-1,3,8-triaza-spiro[4.5]dec-1-ene-8-sulfonyl]-ethyl}-3,5-dimethyl-phenyl)-1-methyl-urea] | 10
Cc1nc(C)c(S(=O)(=O)N2CCC3(CC2)N=C(C2CCCCC2)NC3=O)s1 [Compound 58, 2-cyclohexyl-8-(2,4-dimethyl-thiazole-5-sulfonyl)-1,3,8-triaza-spiro[4.5]dec-1-en-4-one] | 39
COC(=O)Cn1ccc2c(/C=C/S(=O)(=O)N3CCC4(CC3)N=C(C3CCCCC3)NC4=O)cccc21 [Compound 476, {4-[(E)-2-(2-cyclohexyl-4-oxo-1,3,8-triaza-spiro[4.5]dec-1-ene-8-sulfonyl)-vinyl]-indol-1-yl}-acetic acid methyl ester] | 61
Cc1cc(C(=O)N(C)C)ccc1-c1ccc(S(=O)(=O)N2CCC3(CC2)N=C(c2ccc(F)c(C(F)(F)F)c2)NC3=O)s1 [Compound 333, 4-{5-[2-(4-fluoro-3-trifluoromethyl-phenyl)-4-oxo-1,3,8-triaza-spiro[4.5]dec-1-ene-8-sulfonyl]-thiophen-2-yl}-3,N,N-trimethyl-benzamide] | 87
O=C1NC(C2CCCCC2)=NC12CCN(S(=O)(=O)CC/C=C/c1cccc3[nH]ccc13)CC2 [Compound 251, 2-Cyclohexyl-8-[(E)-4-(1H-indol-4-yl)-but-3-ene-1-sulfonyl]-1,3,8-triaza-spiro[4.5]dec-1-en-4-one] | 28
CCCCC1CCC(C2=NC3(CCN(S(=O)(=O)/C=C/c4c(C)cc(N(CCOCCF)C(C)=O)cc4C)CC3)C(=O)N2)CC1 (stereo not shown) [Compound 562, N-(4-{(E)-2-[2-(4-butyl-cyclohexyl)-4-oxo-1,3,8-triaza-spiro[4.5]dec-1-ene-8-sulfonyl]-vinyl}-3,5-dimethyl-phenyl)-N-[2-(2-fluoro-ethoxy)-ethyl]-acetamide] | 74
CC(=O)Nc1ccc(CCS(=O)(=O)N2CCC3(CC2)N=C(C2CCC(CC(C)F)CC2)NC3=O)c(C)c1 (stereo not shown) [Compound 1077, N-[4-(2-{2-[4-(2-fluoro-propyl)-cyclohexyl]-4-oxo-1,3,8-triaza-spiro[4.5]dec-1-ene-8-sulfonyl}-ethyl)-3-methyl-phenyl]-acetamide] | 74
Cc1cc(S(=O)(=O)NCCN(C)C)ccc1CCS(=O)(=O)N1CCC2(CC1)N=C(C1CCCCC1)NC2=O [Compound 844, 4-[2-(2-cyclohexyl-4-oxo-1,3,8-triaza-spiro[4.5]dec-1-ene-8-sulfonyl)-ethyl]-N-(2-dimethylamino-ethyl)-3-methyl-benzenesulfonamide] | 86
Cc1cc(C(=O)N2CCC(OCCN(C)C)CC2)cc(C)c1/C=C/S(=O)(=O)N1CCC2(CC1)N=C(c1cccc(OC(F)(F)F)c1)NC2=O [Compound 407, 8-((E)-2-{4-[4-(2-dimethylamino-ethoxy)-piperidine-1-carbonyl]-2,6-dimethyl-phenyl}-ethenesulfonyl)-2-(3-trifluoromethoxy-phenyl)-1,3,8-triaza-spiro[4.5]dec-1-en-4-one] | 49
Cc1cc(C(=O)N2CCC(O)(CF)CC2)cc(C)c1/C=C/S(=O)(=O)N1CCC2(CC1)N=C(c1ccc(C(F)F)c(F)c1)NC2=O [Compound 1255, 2-(4-difluoromethyl-3-fluoro-phenyl)-8-{(E)-2-[4-(4-fluoromethyl-4-hydroxy-piperidine-1-carbonyl)-2,6-dimethyl-phenyl]-ethenesulfonyl}-1,3,8-triaza-spiro[4.5]dec-1-en-4-one] | 66
CNc1cc(C)c(/C=C/S(=O)(=O)N2CCC3(CC2)N=C(CCCCCCCC(F)(F)C(F)(F)F)NC3=O)c(C)c1 [Compound 691, 8-[(E)-2-(2,6-Dimethyl-4-methylamino-phenyl)-ethenesulfonyl]-2-(8,8,9,9,9-pentafluoro-nonyl)-1,3,8-triaza-spiro[4.5]dec-1-en-4-one] | 69
Cc1cc(C(=O)N2CCC(O)(CF)CC2)cc(C)c1/C=C/S(=O)(=O)N1CCC2(CC1)N=C(c1cccc(C(F)(F)C(F)(F)F)c1)NC2=O [Compound 1243, 8-{(E)-2-[4-(4-fluoromethyl-4-hydroxy-piperidine-1-carbonyl)-2,6-dimethyl-phenyl]-ethenesulfonyl}-2-(3-pentafluoroethyl-phenyl)-1,3,8-triaza-spiro[4.5]dec-1-en-4-one] | 77
COc1cc(N(C)C(N)=O)cc(C)c1CCS(=O)(=O)N1CCC2(CC1)N=C(C1CCC(C)CC1)NC2=O (stereo not shown) [Compound 682, 1-(3-Methoxy-5-methyl-4-{2-[2-(4-methyl-cyclohexyl)-4-oxo-1,3,8-triaza-spiro[4.5]dec-1-ene-8-sulfonyl]-ethyl}-phenyl)-1-methyl-urea] | 81
Cc1cc(CN2CCCC2=O)cc(C)c1/C=C/S(=O)(=O)N1CCC2(CC1)N=C(C1CCC(CCC(F)(F)F)CC1)NC2=O (stereo not shown) [Compound 556, 8-{(E)-2-[2,6-dimethyl-4-(2-oxo-pyrrolidin-1-ylmethyl)-phenyl]-ethenesulfonyl}-2-[4-(3,3,3-trifluoro-propyl)-cyclohexyl]-1,3,8-triaza-spiro[4.5]dec-1-en-4-one] | 19
O=C(CO)Nc1ccc(/C=C/S(=O)(=O)N2CCC3(CC2)N=C(C2CCCCC2)NC3=O)c(C(F)(F)F)c1 [Compound 196, N-{4-[(E)-2-(2-cyclohexyl-4-oxo-1,3,8-triaza-spiro[4.5]dec-1-ene-8-sulfonyl)-vinyl]-3-trifluoromethyl-phenyl}-2-hydroxy-acetamide] | 66
Cc1cc(C(=O)N2CCCO2)cc(C)c1CCS(=O)(=O)N1CCC2(CC1)N=C(C1CCC(CCC(F)(F)F)CC1)NC2=O (stereo not shown) [Compound 1181, 8-{2-[4-(isoxazolidine-2-carbonyl)-2,6-dimethyl-phenyl]-ethanesulfonyl}-2-[4-(3,3,3-trifluoro-propyl)-cyclohexyl]-1,3,8-triaza-spiro[4.5]dec-1-en-4-one] | 98
CC[C@H]1CC[C@H](C2=NC3(CCN(S(=O)(=O)/C=C/c4ccc(N5C(=O)NC(=O)C5C)cc4C)CC3)C(=O)N2)CC1 (stereo partly shown) [Compound 625, 1-(4-{(E)-2-[2-(4-ethyl-cyclohexyl)-4-oxo-1,3,8-triaza-spiro[4.5]dec-1-ene-8-sulfonyl]-vinyl}-3-methyl-phenyl)-5-methyl-imidazolidine-2,4-dione] | 47
O=C(c1ccc2[nH]ccc2c1)N1CCCC(C2=NC3(CCN(S(=O)(=O)CCc4cccc5ccccc45)CC3)C(=O)N2)C1 (stereo not shown) [Compound 428, 2-[1-(1H-Indol-5-carbonyl)-piperidin-3-yl]-8-(2-naphthalen-1-yl-ethanesulfonyl)-1,3,8-triaza-spiro[4.5]dec-1-en-4-one] | 8.8
Cc1cc(C(=O)N(C)C)ccc1CCS(=O)(=O)N1CCC2(CC1)N=C(C1CCCC1)NC2=O [Compound 77, 4-[2-(2-cyclopentyl-4-oxo-1,3,8-triaza-spiro[4.5]dec-1-ene-8-sulfonyl)-ethyl]-3,N,N-trimethyl-benzamide] | 69
CNc1cc(C)c(/C=C/[S@TB3](=O)(=O)N2CCC3(CC2)N=C(CCCCCCCCCO)NC3=O)c(C)c1 [Compound 1107, 8-[(E)-2-(2,6-dimethyl-4-methylamino-phenyl)-ethenesulfonyl]-2-(9-hydroxy-nonyl)-1,3,8-triaza-spiro[4.5]dec-1-en-4-one] | 24

Same assay, conditions: HKRK-B7 cells; compound at 1×10^−3 M; cAMP produced as percentage of that produced by hPTH(1-34) at 100 nM; 0.1 µM

Compound | cAMP production activity (%)
Cc1cc2ccc1CCS(=O)(=O)N1CCC3(CC1)N=C(NC3=O)c1cc(cc(C(F)(F)F)c1)OCCC=CCCCCN(C)C2=O [Compound 1410] | 51
